Data on 2 compounds can be found in patent publication US6555518B1, “Gemcitabine as an immunosuppressive pharmaceutical agent” (Eli Lilly and Company, priority 1998, dated 2003).

For one data set, the system named is CD4+ lymphocytes. The following applies: daily x5 schedule, low malignant lymphomas; cited from earlier work.
The test system of data set [1] is PHA-activated T-lymphocytes (peripheral blood mononuclear cells). The data set can be described thus: T-lymphocyte colony formation (lymphocyte colony-growth assay, microagar culture). The following applies: 168 h, PBMC, colonies scored after 7 days, read-out: 50% inhibition of PHA-induced lymphocyte proliferation (colony formation). The class given is cell-based. How it is done:
dFdC is commercially available. […] Aye, Blood 58, 1043 (1981). Therefore, peripheral blood mononuclear cells (PBMC) were cultured with phytohemagglutinin (PHA) and varying concentrations of dFdC in the microagar culture system described by Petzer et al., Blood 78, 2583 (1991). PBMCs were suspended in Iscove s medium containing 20% fetal calf serum and 0.3% agar. Subsequently 250 μl aliquots of this suspension containing 2×10^5 PBMCs were plated in multiwell tissue culture plates. The agar was allowed to solidify at room temperature and then was overlayered with 250 μl medium containing 0.5% PHA and 0.5% 2-mercaptoethanol (1×10^−4 mol/l final concentrations). The cultures were incubated at 37° C. in a fully humidified atmosphere containing 5% CO2 and colonies were scored using an inverted microscope after 7 days of incubation.

For a further data set, the system named is heart allografts. Kind of data set: Rat heart-transplantation model (heterotopic heart allograft). Type of data set: in vivo. Details: Leucopenia: dose or concentration left out as unconfirmed. The following applies: for Graft rejection: histology graded by ISHT criteria. On the procedure:
Inbred male LEWIS (LEW) rats and Brown Norway (BN) rats weighing 200-270 g were obtained from “Zentralinstitut fur Versuchstierzucht”, Hannover, Germany. Heterotopic heart transplants were performed using microsurgical techniques as described by Schmid et al., Eur. Surg. […] Postoperatively, all animals were given water and standard rat diet ad libitum.
dFdC was administered subcutaneously once daily for 50 consecutive days beginning immediately after surgery. […] The control group (n=8) received no treatment.
The beating activity of heart allografts was determined by daily palpation. Animals were sacrificed by an overdose of ether whenever cardiac allografts stopped beating and hearts and all vital organs were excised for histology. Multiple sections of the left ventricle of the transplant and of every native organ were fixed in 4% buffered formalin. Paraffin-embedded probes were cut into 5-jim-thick sections and stained with hematoxylin and eosin. Slides were assessed by a pathologist blinded to the study and rejection was graded according to the ISHT criteria.

The conditions of data set [2]: i.v. over 30 minutes once per week for 3 weeks followed by a week's rest; cited from earlier work.
For data set [3], the system named is CD4+ and CD8+ lymphocyte subsets. As to conditions: after repeated applications; cited from earlier work.
The conditions of data set [4]: daily x5 schedule, 9 mg/m^2 dose level; cited from earlier work.

Molecules are shown by their SMILES.

With `Nc1nc(Cl)nc2c1ncn2[C@H]1C[C@H](O)[C@@H](CO)O1` [2-chlorodeoxyadenosine], the “Duration of severe suppression of CD4+ lymphocytes” value in the data set on CD4+ lymphocytes is “more than 12 months”.
Regarding `Nc1ccn([C@@H]2O[C@H](CO)[C@@H](O)C2(F)F)c(=O)n1` [dFdC, 2′-deoxy-2′,2′-difluorocytidine], the IC50 in data set [1] came out at 3.25 ± 0.9 nM. Further, the Allograft survival with heart allografts (25 μg/kg/day s.c. once daily for 50 days) came out at 7.3 days; with heart allografts (50 μg/kg/day s.c. once daily for 50 days), 9.2 days; with heart allografts (75 μg/kg/day s.c. once daily for 50 days), 15.7 days; in the data set with heart allografts (100 μg/kg/day s.c. once daily for 50 days), 152.8 days; with heart allografts (125 μg/kg/day s.c. once daily for 50 days) it was 144.2 days; in the data set on heart allografts (150 μg/kg/day s.c. once daily for 50 days), 41.5 days. The figures for the Allograft survival with heart allografts (300 μg/kg/day s.c. once daily for 50 days), in the data set on heart allografts (600 μg/kg/day s.c. once daily for 50 days) and in the data set on heart allografts (6000 μg/kg/day s.c. once daily for 50 days) were 16.0 days, 10.5 days and 4.0 days, respectively. Further, the Graft rejection entry was “Grade IV” in the data set with heart allografts (25 μg/kg/day); “Grade IV” with heart allografts (50 μg/kg/day); “Grade IV” with heart allografts (75 μg/kg/day); “Grade IV” in the data set with heart allografts (100 μg/kg/day); “Grade IV” with heart allografts (125 μg/kg/day); “None” in the data set on heart allografts (150 μg/kg/day). The Graft rejection entry in the data set with heart allografts (300 μg/kg/day), with heart allografts (600 μg/kg/day) and in the data set on heart allografts (6000 μg/kg/day) was “None” in each case. For the same compound, the “Graft survival compared to untreated controls” value with heart allografts (all animals given between 75 and 600 μg/kg BW) is reported as “prolonged”. Also, in the data set on heart allografts (all animals of all dose groups), the Leucopenia entry was “Dose-dependent leucopenia occurred in all animals of all groups”. The Reversibility of leucopenia entry with heart allografts (animals given less than 150 μg/kg) was “reversible”. In the data set on heart allografts (more than 125 μg/kg BW), the “Toxicity at high dose” value was “overimmunosuppression and irreversible myelotoxicity”. The “Myelosuppression with severe infections (WHO grade III/IV), share of patients” value in data set [2] is “less than 1%”. Further, in data set [3], the “Reduction of CD4+ and CD8+ lymphocyte subsets” value was “no significant reduction”. In data set [4], the Nonhaematologic toxicity entry is “significant amount of nonhaematologic toxicity including sporadic fever and severe hypertension”.
